Where two headings read alike, the source gives them in different places.

What all share (experiment): Post-emergence efficacy, glasshouse, evaluated after 13 days
Holding throughout (type): in vivo

Assay [1] has as its system Amaranthus palmeri (AMAPA). The following applies: for pest or weed control at 500 g/ha: Amaranthus palmeri, 312 h, read-out: Control of weed species AMAPA (100=total damage to plant; 0=no damage to plant). Put shortly:
(§1)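 Sprayed at 14 days after sowing with an emulsifiable IF50-based formulation in aqueous surfactant/ammonium sulphate diluent, the plants were kept in a 24/16 °C glasshouse with 14 h light. Visual herbicidal damage was recorded after 13 days on a 0–100 scale.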

In assay [2] the test system is Chenopodium album (CHEAL). As to conditions: for pest or weed control at 500 g/ha: Chenopodium album, 312 h, read-out: Control of weed species CHEAL (100=total damage to plant; 0=no damage to plant). Summed up: as §1
The subject of assay [3] is Digitaria sanguinalis (DIGSA). The following applies: for pest or weed control at 500 g/ha: Digitaria sanguinalis, 312 h, read-out: Control of weed species DIGSA (100=total damage to plant; 0=no damage to plant). Put shortly:
as §1

The test system of assay [4] is Echinochloa crus-galli (ECHCG). The following applies: for pest or weed control at 500 g/ha: Echinochloa crus-galli, 312 h, read-out: Control of weed species ECHCG (100=total damage to plant; 0=no damage to plant). Summed up: as §1
The test system of a further assay is Eleusine indica (ELEIN). As to conditions: for pest or weed control at 500 g/ha: Eleusine indica, 312 h, read-out: Control of weed species ELEIN (100=total damage to plant; 0=no damage to plant). Put shortly: as §1
Assay [5] deals with Euphorbia heterophylla (EPHHL). The following applies: for pest or weed control at 500 g/ha: Euphorbia heterophylla, 312 h, read-out: Control of weed species EPHHL (100=total damage to plant; 0=no damage to plant). Put shortly:
as §1

The subject of assay [6] is Ipomoea hederacea (IPOHE). As to conditions: for pest or weed control at 500 g/ha: Ipomoea hederacea, 312 h, read-out: Control of weed species IPOHE (100=total damage to plant; 0=no damage to plant). Summed up: as §1
Another assay has as its system Lolium perenne (LOLPE). As to conditions: for pest or weed control at 500 g/ha: Lolium perenne, 312 h, read-out: Control of weed species LOLPE (100=total damage to plant; 0=no damage to plant). Put shortly: as §1
Another assay relates to Setaria faberi (SETFA). The following applies: for pest or weed control at 500 g/ha: Setaria faberi, 312 h, read-out: Control of weed species SETFA (100=total damage to plant; 0=no damage to plant). Put shortly: as §1
[7] abbreviates: post-emergence application, 500 g/Ha, evaluated after 13 days.

Regarding `CCNC(=O)c1cc[n+](CCP(=O)(OCC)OCC)nc1` [Compound A87], the pest or weed control at 500 g/ha was 100% in assay [1] (post-emergence); 100% in assay [2] (post-emergence); 10% in assay [3] (post-emergence); 0% in assay [4] (post-emergence); 20% in the assay with Eleusine indica (ELEIN) (post-emergence); 40% in assay [5] (post-emergence). For the same compound, the pest or weed control at 500 g/ha worked out at 30% in assay [6] (post-emergence), 10% in the assay with Lolium perenne (LOLPE) (post-emergence) and 60% in the assay with Setaria faberi (SETFA) (post-emergence).

For the compound `CC(C#N)NC(=O)c1cc[n+](CCC(=O)O)nc1` (stereo not drawn) [Compound A85], the pest or weed control at 500 g/ha in assay [1] (setting [7]) was determined as 100%; in assay [2] (setting [7]) it was 90%; in assay [3] (setting [7]), 100%; in [4] (setting [7]), 90%; in the assay on Eleusine indica (ELEIN) (setting [7]), 100%; in [5] (setting [7]), 100%. The results for the pest or weed control at 500 g/ha (in [6] (setting [7]); in the assay on Lolium perenne (LOLPE) (setting [7]); in the assay on Setaria faberi (SETFA) (setting [7])) were 30%, 60% and 90%, respectively.

With `CCNC(=O)c1cc[n+](CC(=O)OC)nc1` [Compound A89], the pest or weed control at 500 g/ha in [1] (setting [7]) is 0%; in assay [2] (setting [7]), 0%; in assay [3] (setting [7]), 0%; in assay [4] (setting [7]), 0%; with Eleusine indica (ELEIN) (setting [7]) it was 0%; in [5] (setting [7]) it was 20%. For the same compound, the pest or weed control at 500 g/ha in assay [6] (setting [7]) came out at 20%; with Lolium perenne (LOLPE) (setting [7]) it was 0%; with Setaria faberi (SETFA) (setting [7]), 0%.

`CCNC(=O)c1cc[n+](C(C)CC(=O)O)nc1` (stereo not drawn) [Compound A61]: the pest or weed control at 500 g/ha came to 100% in assay [1] (setting [7]); 90% in assay [2] (setting [7]); 100% in [3] (setting [7]); 50% in [4] (setting [7]); 90% in the assay on Eleusine indica (ELEIN) (setting [7]); 80% in assay [5] (setting [7]). Moreover, the figures for the pest or weed control at 500 g/ha (in assay [6] (setting [7]); in the assay with Lolium perenne (LOLPE) (setting [7]); in the assay on Setaria faberi (SETFA) (setting [7])) were 70%, 80% and 50%, respectively.

As for `CCNC(=O)c1cc[n+](CC(C)(C)C(=O)O)nc1` [Compound A88], the pest or weed control at 500 g/ha in assay [1] (setting [7]) amounted to 100%; in assay [2] (setting [7]), 100%; in [3] (setting [7]), 80%; in assay [4] (setting [7]), 90%; in the assay on Eleusine indica (ELEIN) (setting [7]), 100%; in assay [5] (setting [7]) it was 90%. For the same compound, the pest or weed control at 500 g/ha in assay [6] (setting [7]) stood at 90%; in the assay with Lolium perenne (LOLPE) (setting [7]) it was 60%; in the assay with Setaria faberi (SETFA) (setting [7]) it was 100%.

For `O=C(O)CC[n+]1ccc(C(=O)N2CCS(=O)(=O)CC2)cn1` [Compound A108], the pest or weed control at 500 g/ha in assay [1] (setting [7]) amounted to 100%; in assay [2] (setting [7]), 100%; in assay [3] (setting [7]), 90%; in [4] (setting [7]), 70%; with Eleusine indica (ELEIN) (setting [7]), 80%; in assay [5] (setting [7]), 80%. Besides, the pest or weed control at 500 g/ha was found to be 70% in assay [6] (setting [7]), 40% in the assay with Lolium perenne (LOLPE) (setting [7]) and 90% in the assay on Setaria faberi (SETFA) (setting [7]).

As to `O=C(O)CC[n+]1ccc(C(=O)Nc2cnccn2)cn1` [Compound A124], the pest or weed control at 500 g/ha in [1] (setting [7]) is 20%; in [2] (setting [7]) it was 30%; in assay [3] (setting [7]), 70%; in [4] (setting [7]), 60%; in the assay on Eleusine indica (ELEIN) (setting [7]), 30%; in [5] (setting [7]), 30%. Further, the pest or weed control at 500 g/ha in assay [6] (setting [7]) stood at 20%; with Lolium perenne (LOLPE) (setting [7]), 10%; with Setaria faberi (SETFA) (setting [7]), 70%.

In the case of `CCNC(=O)c1cc[n+](CCCOS(=O)(=O)[O-])nc1` [Compound A83], the “Control of weed species AMAPA (100=total damage to plant; 0=no damage to plant)” value in assay [1] (setting [7]) was 90. Moreover, the “Control of weed species CHEAL (100=total damage to plant; 0=no damage to plant)” value in assay [2] (setting [7]) was determined as 90. For the same compound, the “Control of weed species DIGSA (100=total damage to plant; 0=no damage to plant)” value in assay [3] (setting [7]) turned out to be 90. Also, the “Control of weed species ECHCG (100=total damage to plant; 0=no damage to plant)” value in assay [4] (setting [7]) is 90. For the same compound, in the assay with Eleusine indica (ELEIN) (setting [7]), the “Control of weed species ELEIN (100=total damage to plant; 0=no damage to plant)” value worked out at 90. In [5] (setting [7]), the “Control of weed species EPHHL (100=total damage to plant; 0=no damage to plant)” value came to 90. In addition, in assay [6] (setting [7]), the “Control of weed species IPOHE (100=total damage to plant; 0=no damage to plant)” value turned out to be 80. Further, the “Control of weed species LOLPE (100=total damage to plant; 0=no damage to plant)” value in the assay on Lolium perenne (LOLPE) (setting [7]) is reported as 80. For the same compound, the “Control of weed species SETFA (100=total damage to plant; 0=no damage to plant)” value in the assay with Setaria faberi (SETFA) (setting [7]) was 60.

For `CC1(C)CC(CCNC(=O)c2cc[n+](CCC(=O)O)nc2)=NO1` [Compound A148, 3-[4-[2-(5,5-dimethyl-4H-isoxazol-3-yl)ethylcarbamoyl]pyridazin-1-ium-1-yl]propanoic acid 2,2,2-trifluoroacetate], the pest or weed control at 500 g/ha in assay [1] (setting [7]) was 70%; in [2] (setting [7]), 90%; in assay [3] (setting [7]), 80%; in assay [4] (setting [7]), 30%; in the assay with Eleusine indica (ELEIN) (setting [7]), 30%; in [5] (setting [7]), 40%. Further, the pest or weed control at 500 g/ha in assay [6] (setting [7]) is 30%; in the assay with Lolium perenne (LOLPE) (setting [7]), 30%; in the assay on Setaria faberi (SETFA) (setting [7]), 50%.

Turning to `CC(=O)CCNC(=O)c1cc[n+](CCC(=O)O)nc1` [Compound A130], the pest or weed control at 500 g/ha in [1] (setting [7]) was found to be 100%; in [2] (setting [7]), 90%; in assay [3] (setting [7]), 100%; in [4] (setting [7]), 50%; in the assay on Eleusine indica (ELEIN) (setting [7]), 70%; in [5] (setting [7]), 20%. Also, the pest or weed control at 500 g/ha in [6] (setting [7]) was found to be 10%; in the assay on Lolium perenne (LOLPE) (setting [7]), 70%; in the assay with Setaria faberi (SETFA) (setting [7]), 100%.

For `O=C(O)CC[n+]1ccc(C(=O)Nc2nccs2)cn1` [Compound A102], the pest or weed control at 500 g/ha in assay [1] (setting [7]) stood at 100%; in assay [2] (setting [7]), 60%; in assay [3] (setting [7]), 0%; in assay [4] (setting [7]), 0%; in the assay on Eleusine indica (ELEIN) (setting [7]), 0%; in assay [5] (setting [7]), 20%. Also, the pest or weed control at 500 g/ha in assay [6] (setting [7]) was found to be 20%; in the assay with Lolium perenne (LOLPE) (setting [7]), 0%; in the assay on Setaria faberi (SETFA) (setting [7]), 10%.

The record behind these values is patent US20210403435A1, “HERBICIDAL COMPOUNDS” (SYNGENTA CROP PROTECTION AG, priority 2018, published 2021).
